Nine compounds from EP4678638A1, “NEW E3 UBIQUITIN LIGASE LIGAND, PROTEIN DEGRADATION AGENT AND USE THEREOF” (priority 2023, dated 2024) can be followed below.

In the assay the target is T1, human Cereblon WT GST-tagged protein (Homo sapiens, UniProt Q96SW2).
T1 construct: purchased CISBIO 64BDCRBNPEH
Nature of the assay: CRBN binding, HTRF (CEREBLON BINDING kit). The following applies: HTRF; for inhibition at 0.5 µM / inhibition at 2 µM: Table II-2, CRBN binding screening; for inhibition at 0.5 µM: read-out: Inhibition rate (%) at 0.5µM; for inhibition at 2 µM: read-out: Inhibition rate (%) at 2 µM; for IC50: Table II-1, CRBN binding. As to the method:
The CEREBLON BINDING kits (specification: 10,000 tests; product number: Catalog # 64BDCRBNPEH; CISBIO company) was used to determine the CRBN binding ability of the compounds to be tested through a HTRF method (homogeneous time-resolved fluorescence). The specific methods are as follows: • 1. […] Then, 2.5 µL of human Cereblon WT GST-tagged protein solution was added to each well. Finally, 5 µL of the thoroughly mixed Thalidomide-Re reagent and GST Eu antibody working solution were added to each of the aforementioned wells. […] The blank control wells were sequentially added with 2.5 µL of diluent #9 (1X) solution, 2.5 µL of binding buffer, and 5 µL of thoroughly mixed Thalidomide-Re reagent and GST Eu antibody working solution. • 4. After sealing and incubating the solutions in the aforementioned wells at room temperature for 3 hours, the […] at emission wavelengths of 620 nm and 665 nm were detected by the HTRF method using a Spark microplate reader (V3.1 SP1).
(Time-resolved FRET reads energy transfer from a long-lived donor to a nearby acceptor.)

T1 sequence (Q96SW2 whole entry): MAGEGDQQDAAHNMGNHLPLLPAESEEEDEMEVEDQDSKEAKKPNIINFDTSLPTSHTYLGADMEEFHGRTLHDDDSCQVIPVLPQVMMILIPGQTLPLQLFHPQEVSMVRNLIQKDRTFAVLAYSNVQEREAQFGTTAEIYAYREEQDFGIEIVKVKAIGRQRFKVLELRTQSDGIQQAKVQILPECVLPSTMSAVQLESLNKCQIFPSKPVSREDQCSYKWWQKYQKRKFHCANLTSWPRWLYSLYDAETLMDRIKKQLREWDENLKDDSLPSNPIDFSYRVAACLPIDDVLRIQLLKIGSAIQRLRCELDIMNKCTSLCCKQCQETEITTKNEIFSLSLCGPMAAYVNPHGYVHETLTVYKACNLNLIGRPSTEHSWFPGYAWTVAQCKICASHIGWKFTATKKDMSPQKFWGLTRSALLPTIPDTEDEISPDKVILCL

In general, inhibition refers to the change of the read-out against control, counted positive when it falls. Turning to `Cc1ccc(C(=O)Nc2ccc(N3CCC(N(C)Cc4ccc(C5CCC(=O)NC5=O)cc4)CC3)c(C(F)(F)F)c2)cc1C#Cc1cnc2cccnn12` (centres unmarked) [GT-04106, N-(4-(4-((4-(2,6-dioxopiperidin-3-yl)benzyl)(methyl)amino)piperidin-1-yl)-3-(trifluoromethyl)phenyl)-3-(imidazo[1,2-b]pyridazin-3-ylethynyl)-4-methylbenzamide], the inhibition at 0.5 µM fell in the range of 40 to 53% and the inhibition at 2 µM was 60 to 80%.
As to `Cc1ccc(C(=O)Nc2ccc(N3CCC(N(C)Cc4ccc(C5CCC(=O)NC5=O)c(F)c4)CC3)c(C(F)(F)F)c2)cc1C#Cc1cnc2cccnn12` (centres unmarked) [GT-04107, N-(4-(4-((4-(2,6-dioxopiperidin-3-yl)-3-fluorobenzyl)(methyl)amino)piperidin-1-yl)-3-(trifluoromethyl)phenyl)-3-(imidazo[1,2-b]pyridazin-3-ylethynyl)-4-methylbenzamide], the inhibition at 0.5 µM was in the range of 30 to 40% and the inhibition at 2 µM was in the range of 80 to 100%.
`Cn1cc(-c2cc(S(C)(=O)=O)ccc2OCc2ccc(C3CCC(=O)NC3=O)c(F)c2)c2cc[nH]c2c1=O` (centres unmarked) [GT-04640, 3-(2-fluoro-4-((2-(6-methyl-7-oxo-6,7-dihydro-1H-pyrrolo[2,3-c]pyridin-4-yl)-4-(methylsulfonyl)phenoxy)methyl)phenyl)piperidine-2,6-dione]: the inhibition at 0.5 µM is 60 to 80% and the inhibition at 2 µM was in the range of 80 to 100%.
Taken in the same sequence, the figures for `Cn1cc(-c2cc(S(C)(=O)=O)ccc2OCc2ccc(N3CCC(=O)NC3=O)c(F)c2)c2cc[nH]c2c1=O` [GT-04643, 1-(2-fluoro-4-((2-(6-methyl-7-oxo-6,7-dihydro-1H-pyrrolo[2,3-c]pyridin-4-yl)-4-(methylsulfonyl)phenoxy)methyl)phenyl)dihydropyrimidine-2,4(1H,3H)-dione] were 30 to 40% and 60 to 80%.
Taken in the same sequence, the figures for `Cn1cc(-c2cc(S(C)(=O)=O)ccc2OCc2ccc(N3CCC(=O)NC3=O)cc2)c2cc[nH]c2c1=O` [GT-04645, 1-(4-((2-(6-methyl-7-oxo-6,7-dihydro-1H-pyrrolo[2,3-c]pyridin-4-yl)-4-(methylsulfonyl)phenoxy)methyl)phenyl)dihydropyrimidine-2,4(1H,3H)-dione] were 20 to 30% and 53 to 60%.
As usually defined, the IC50 is the point on the concentration scale where inhibition reaches its midpoint. `O=C1CCN(c2cccc(CN3CCN(C4CCN(c5ccc([C@@H]6c7ccc(O)cc7CC[C@@H]6c6ccccc6)cc5)CC4)CC3)c2)C(=O)N1` [GT-04685, 1-(3-((4-(1-(4-((1R,2S)-6-hydroxy-2-phenyl-1,2,3,4-tetrahydronaphthalen-1-yl)phenyl)piperidin-4-yl)piperazin-1-yl)methyl)phenyl)dihydropyr imidine-2,4(1H,3H)-dione] displayed an IC50 of 0.5 to 1 µM.
The compound `O=C1CCN(c2ccc(CN3CCN(C4CCN(c5ccc([C@@H]6c7ccc(O)cc7CC[C@@H]6c6ccccc6)cc5)CC4)CC3)cc2)C(=O)N1` [GT-04686, 1-(4-((4-(1-(4-((1R,2S)-6-hydroxy-2-phenyl-1,2,3,4-tetrahydronaphthalen-1-yl)phenyl)piperidin-4-yl)piperazin-1-yl)methyl)phenyl)dihydropyr imidine-2,4(1H,3H)-dione] registered an IC50 of 1 to 1.9 µM.
Compound `O=C1CCN(c2ccc(CN3CCN(C4CCN(c5ccc([C@@H]6c7ccc(O)cc7CC[C@@H]6c6ccccc6)cc5)CC4)CC3)c(F)c2)C(=O)N1` [GT-04687, 1-(3-fluoro-4-((4-(1-(4-((1R,2S)-6-hydroxy-2-phenyl-1,2,3,4-tetrahydronaphthalen-1-yl)phenyl)piperidin-4-yl)piperazin-1-yl)methyl)phenyl)dihydropyr imidine-2,4(1H,3H)-dione] gave an IC50 of 1 to 1.9 µM.
The compound `O=C1CCN(c2ccc(CN3CCN(C4CCN(c5ccc([C@@H]6c7ccc(O)cc7CC[C@@H]6c6ccccc6)cc5)CC4)CC3)cc2F)C(=O)N1` [GT-04738, 1-(2-fluoro-4-((4-(1-(4-((1R,2S)-6-hydroxy-2-phenyl-1,2,3,4-tetrahydronaphthalen-1-yl)phenyl)piperidin-4-yl)piperazin-1-yl)methyl)phenyl)dihydropyr imidine-2,4(1H,3H)-dione] returned an IC50 of 1 to 1.9 µM.
